From patent EP1105728B1, “MODULATING MULTIPLE LINEAGE KINASE PROTEINS” (CEPHALON, INC., priority 1998, dated 2000)
Like-named read-outs stand apart in the source and are kept apart here.

Columns and labels:
[1] = system: TNF-α; assay: Induction of TNF-α by LPS in THP-1 cells (ELISA); type: cell-based; conditions: Homo sapiens
Description: THP-1 cells were grown in RPMI 1640 medium supplemented with 10% fetal bovine serum. LPS (E.coli serotype 0111.B4, TCA extracted) was purchased from Sigma and dissolved in PBS. ELISA kits for assaying IL-1 and TNF-α were purchased from Boerhinger-Mannheim and assays on THP-1 culture medium were performed as directed by the manufacturer. Standard curves according to directions were obtained with each assay.
Experiments were performed in 12 well culture plates with either 1 or 2 ml of THP-1 cells at 4 X 10^5 cells/ml. IL-1 and TNF-α were induced by the addition of LPS to the culture medium and the medium collected at various times thereafter for cytokine assay. Cells were removed by centrifugation and the supernatants frozen at -70°C until assay. To minimize costs experiments were performed in duplicate cultures and the duplicate supernatants were pooled after centrifugation. Each pooled supernatant was assayed in duplicate. Stock solutions of indolo- and fused pyrrolocarbazoles in 100% DMSO were diluted to the desired concentrations in either medium containing 10% fetal bovine serum or in medium containing 0.5 mg/ml BSA. Unless otherwise stated, compounds were added to the THP-1 cells 1 hr prior to the addition of LPS.

[2] = system: lumbar motor neurons; assay: Developmentally regulated motor neuronal death in the chick embryo; type: in vivo
Description: The present example is described in detail in Glicksman, et al., J. Neurobiol., 1998, 35, 361-370, which is incorporated herein by reference in its entirety. On E6, a window in the shell of chick eggs (Spafas, Preston, CT) was made and either vehicle (5% Solutol ™ HS 15, polyethylene glycol 660 hydroxysterate; BASF Aktiengesellschaft, Ludwigshafen, Germany (in phosphate-buffered saline, pH 7.2)) or the specified dose of Compound III-3 in the vehicle was applied directly onto the vascularized chorioallantoic membrane-once daily from E6 to E9 as described in Oppenheim, et al., Science, 1991, 251, 1616-1617, which is incorporated herein by reference in its entirety). Embryos were sacrificed at E10 and their spinal cords were removed, fixed in Carnoy's solution (10% glacial acetic acid, 60% absolute ethanol, 30% chloroform), processed for serial paraffin sections, and stained with thionin. Every 20th section of lumbar segments 1-8 was counted according to previously described criteria (Clarke, et al., Methods In Cell Biology: Cell Death, 1995, Schwart & Osborne, Eds., Academic Press, New York, pp.277-321, which is incorporated herein by reference in its entirety).

[3] = system: chick motoneurons; assay: Survival of chick embryonic motoneurons; type: cell-based
Description: Motoneurons (embryonic day 5.5) were isolated with an immunological method according to the procedure set forth in Bloch-Gallego, et al., Development, 1991, 111, 221-232, which is incorporated herein by reference in its entirety, with modifications as described in Weng, et al., NeuroReport, 1996, 7, 1077-1081, which is incorporated herein by reference in its entirety. Purified motoneurons were seeded onto 35 mm tissue culture dishes (Nunc) pre-coated with poly-DL-omithine and laminin (1 µg/ml, Upstate Biotech). […] Muscle extract was supplemented at 30 µg/ml. Compound III-3 was prepared as a 4mM stock solution in DMSO and stored protected from light at 4°C. The final concentration of DMSO in treated and control cultures was 0.125%.
Neurons were plated in 35 mm culture dishes with grids (Nunc). Selected areas of each dish comprising together about 10% of the surface scanned for the presence of phase bright cells immediately after plating and again after 48 h to assess survival percentages. Cell survival was confirmed by vital staining with trypan blue (not shown).

[4] = system: SNB motor neurons; assay: Developmentally regulated motor neuronal death in the neonatal rat (SNB); type: in vivo
Description: Untimed pregnant Sprague-Dawley rats were obtained from Harlan Laboratories (Indianapolis, IN). Female rat pups were injected daily, subcutaneously (SC), over the target perineal muscles, with Compound III-3 in 5% Solutol ™ HS 15 or vehicle along starting on the day of birth (P1) and continuing for 5 days (P5). On P10 or P60, pups were decapitated, blood was collected in heparinized capillary tubes, and the region of the spinal cord containing the sexually dimorphic spinal nucleus of the bulbocavemosus (SNB) and the perineal area containing the bulbocavernosus (BC) and levator ani (LA) muscles were dissected after perfusion of the animals with saline/formalin. The region of the spinal cord containing the SNB was postfixed, embedded in Paraplast, sectioned at 10µm, and stained with Cresylecht violet (Nordeen, et al., Science, 1985, 229, 671-673, which is incorporated herein by reference in its entirety). Motor neurons were counted at X500 in serial sections from the lumbar 5 to the sacral 1 region of the spinal cord as described previously (Nordeen, et al., supra). The microscopic enumeration was made on coded sections by an observer blinded to the treatment groups. Motor neuron counts were corrected for cell size and section thickness (Konisgsmark, Contemporary Research Methods in Neuroanatomy, Nauta & Ebbesson, Eds., 1970, Springer-Verlag, New York, pp.315-340, which is incorporated herein by reference in its entirety) and statistical analysis was by one-way analysis ofvariance (ANOVA). Perineal musculature was postfixed, decalcified, embedded in Paraplast, sectioned at I 0µm and stained with Milligan's Trichrome. […] The outline of muscle tissue was traced from alternate sections using a projection microscope (62.5), and the cross-sectional area was measured using a digitizing pad and a computer-based morphometry system (Sigmascan, Jandel Scientific). Muscle volume was calculated by talking the total cross-sectional area and multiplying it by the section thickness, and corrected for the percentage of the structure sampled.

[5] = system: substantia nigra tyrosine hydroxylase immunoreactive neurons; assay: MPTP model: substantia nigra tyrosine hydroxylase immunoreactive neurons; type: in vivo, mice; conditions: MPTP 40 mg/kg; systemically administered (Fig. 22a)
Description: MPTP was administered at a dose (40 mg/kg) that produces loss of striatal dopaminergic terminals and cell bodies in the substantia nigra. Tyrosine hydroxylase was used as a marker for dopamenergic nerve terminals in the substantia nigra. […] Since Compound III-3 is a known inhibitor of MLK3, activation of a downstream substrate of MLK3 was measured in MPTP- treated mice. Levels of phosphorylated MKK4 were measured using a phospho-MKK4 specific antibody (New England Biolabs, Beverly, MA) that recognizes the monophosphorylated form of MKK4 by either immunoblot (Fig. 22b) or ELISA (Fig. 22c). MPTP administration elevated levels of phosphorylated MKK4 in the substantia nigra by up to 5 fold over control levels (Fig. 22b). Peak elevations occurred 4 hrs after administration ofMPTP and coincided with peak CNS levels of MPP^+.

**Q.** Which results are given for `CCSCc1ccc2c(c1)c1c3c(c4c5cc(CSCC)ccc5n5c4c1n2C1CC(O)(C(=O)OC)C5(C)O1)CNC3=O` (centres unmarked) [III-3]?
**A.** IC50 ([1]; THP-1, LPS 2 µg/ml, serum-free medium, read-out: THP-1 Cells TNF-α IC50): 29 nM; IC50 ([1]; THP-1 cells, medium containing 10% fetal bovine serum, read-out: IC50 inhibition of the induction of TNF-α): 139 nM; motor neurons rescued ([2]; 1.2 and 1.8 µg/day onto the chorioallantoic membrane): 25%; motor neurons that would normally die rescued ([2]; 2.3 and 7 µg/day onto the chorioallantoic membrane): Forty; motoneurons survived ([3]; after 48 h, Compound III-3 300 nM, serum-free conditions, muscle extract 30 µg/ml): 79%; motoneurons alive ([3]; after four days in culture): 56%; concentration of maximal survival effect ([3]; serum-free conditions, higher concentrations showed a progressively reduced effect): 300 nM; rescued motor neurons identifiable morphologically 55 days after the last treatment ([4]; 0.5 and 1 mg/kg per day PN 1-5, sacrifice at PN60): 100%; enhancement in motor-neuronal survival ([4]; 0.5 and 1 mg/kg per day sc, PN 1-5, female rats): 70%; weight loss, mortality, gross tissue damage ([4]; SNB model): no associated weight loss, mortality, or gross tissue damage; loss of substantia nigra tyrosine hydroxylase immunoreactive neurons after MPTP lesion [5]: attenuated the loss
